Patent publication US20250296971A1, “GASTRIC INHIBITORY PEPTIDE RECEPTOR LIGANDS” (priority 2021, published 2025)
*1 amine or outer side, *2 acyl side, *3 side chain or, on linkers, in order; H or OH if unused. Where a SMILES comes first, the peptide text is derived from it. Bridges are numbered along the chain shown (N, C = ends). [ ]: non-standard residue; d: D form. The star is where a group is joined. X5 = NC(=O)[C@H](CCCCNC(=O)CN1CCN(CC(=O)O)CCN(CC(=O)O)CCN(CC(=O)O)CC1)NC(=O)CCC(=O)NCCCOCCOCCOCCCN*; X3 = O=C(O)CN1CCN(CC(=O)O)CCN(CC(=O)NCCCOCCOCCOCCCN*)CCN(CC(=O)O)CC1; DOTA = O=C(O)CN1CCN(CC(=O)O)CCN(CC(=O)*)CCN(CC(=O)O)CC1; Trp(5-Br) = N[C@@H](Cc1c[nH]c2ccc(Br)cc12)C(=O)O; Trp(5-Cl) = N[C@@H](Cc1c[nH]c2ccc(Cl)cc12)C(=O)O; Trp(5-F) = N[C@@H](Cc1c[nH]c2ccc(F)cc12)C(=O)O; Trp(6-F) = N[C@@H](Cc1c[nH]c2cc(F)ccc12)C(=O)O; 1Nal = N[C@@H](Cc1cccc2ccccc12)C(=O)O; mXylylene = c1cc(C[*:1])cc(C[*:2])c1; X29 = c1cc(CNCCN[*:2])cc(C[*:1])c1; X6 = c1cc(CSCCN[*:2])nc(C[*:1])c1; X7 = c1cc(CSCCN[*:2])cc(C[*:1])c1; Hyp = O=C(O)[C@@H]1C[C@@H](O)CN1; X1 = O=C(CN1CCC(N[*:1])CC1)[*:2]; X15 = c1ncc(C[*:1])cc1CSCCN[*:2]; Suc = O=C(CCC(=O)[*:2])[*:1]; Ac6c = NC1(C(=O)O)CCCCC1; Api = NC1(C(=O)O)CCNCC1; Thp = NC1(C(=O)O)CCOCC1; Aib = CC(C)(N)C(=O)O

Molecular target: T1, GIPR (CHO-K1-hGIPR cells) (Homo sapiens, UniProt P48546)
T1 construct: host or cells: CHO-K1
T1 sequence (P48546 22-466): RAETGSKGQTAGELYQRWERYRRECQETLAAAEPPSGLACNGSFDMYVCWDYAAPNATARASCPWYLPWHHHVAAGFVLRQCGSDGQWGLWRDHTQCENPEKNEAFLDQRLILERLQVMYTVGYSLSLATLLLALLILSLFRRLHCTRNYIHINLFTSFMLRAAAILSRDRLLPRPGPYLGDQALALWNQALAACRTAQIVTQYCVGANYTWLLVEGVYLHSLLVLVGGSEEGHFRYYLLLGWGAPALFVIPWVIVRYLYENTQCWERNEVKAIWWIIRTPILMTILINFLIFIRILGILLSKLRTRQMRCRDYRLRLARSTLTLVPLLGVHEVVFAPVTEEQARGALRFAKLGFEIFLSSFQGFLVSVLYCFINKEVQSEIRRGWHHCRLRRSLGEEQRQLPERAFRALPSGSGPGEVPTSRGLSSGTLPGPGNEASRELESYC
Experiment: FACS binding assay
Details: competition with 20 nM GIP-057, 4° C., 1 hour, read-out: pIC50 Category (converted)
Outline: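 Peptide binding read by flow cytometry as APC-channel median fluorescence, fitted with a four-parameter logistic to yield EC50 or IC50. Cells were hGIPR-transfected CHO-K1 in PBS with 1% FCS, detected with 1 μg/mL APC-streptavidin, 30 min on ice.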

SMILES | IC50 [nM]
CC[C@H](C)[C@@H]1NC(=O)[C@H](CC(C)C)NC(=O)C2(CCCCC2)NC(=O)[C@@H](NC(=O)[C@@H](CC(C)C)NC(=O)[C@H](CCC(=O)O)NC(=O)[C@@H]2CCCN2C(=O)[C@H](Cc2c[nH]c3ccc(Cl)cc23)NC(=O)[C@H](Cc2c[nH]c3ccccc23)NC(=O)[C@H](CC(=O)O)NC(=O)CCC(=O)NCCCOCCOCCOCCCNC(=O)CN2CCN(CC(=O)O)CCN(CC(=O)O)CCN(CC(=O)O)CC2)CSCc2cccc(c2)CSCCNC1=O [GIP-086, DOTA-Ttds-Asp-Trp-5Clw-Pro-Glu-leu-[Cys(3MeBn)-Egz-Leu-Ile-AET]] ({X3-Suc}-DW[Trp(5-Cl)]PE[dL]C[Ac6c]LI; linker 7-C via X7) | < 10
CC[C@H](C)[C@@H]1NC(=O)[C@H](CC(C)C)NC(=O)C2(CCOCC2)NC(=O)[C@@H](NC(=O)[C@@H](CC(C)C)NC(=O)[C@H](CCC(=O)O)NC(=O)[C@@H]2CCCN2C(=O)[C@H](Cc2c[nH]c3ccc(Cl)cc23)NC(=O)[C@H](Cc2c[nH]c3ccccc23)NC(=O)[C@H](CC(=O)O)NC(=O)CCC(=O)NCCCOCCOCCOCCCNC(=O)CN2CCN(CC(=O)O)CCN(CC(=O)O)CCN(CC(=O)O)CC2)CSCc2cccc(c2)CSCCNC1=O [GIP-087, DOTA-Ttds-Asp-Trp-5Clw-Pro-Glu-leu-[Cys(3MeBn)-Thp-Leu-Ile-AET]] ({X3-Suc}-DW[Trp(5-Cl)]PE[dL]C[Thp]LI; linker 7-C via X7) | < 10
CC[C@H](C)[C@@H]1NC(=O)[C@H](CC(C)C)NC(=O)C2(CCNCC2)NC(=O)[C@@H](NC(=O)[C@@H](CC(C)C)NC(=O)[C@H](CCC(=O)O)NC(=O)[C@@H]2CCCN2C(=O)[C@H](Cc2c[nH]c3ccc(Cl)cc23)NC(=O)[C@H](Cc2c[nH]c3ccccc23)NC(=O)[C@H](CC(=O)O)NC(=O)CCC(=O)NCCCOCCOCCOCCCNC(=O)CN2CCN(CC(=O)O)CCN(CC(=O)O)CCN(CC(=O)O)CC2)CSCc2cccc(c2)CSCCNC1=O [GIP-088, DOTA-Ttds-Asp-Trp-5Clw-Pro-Glu-leu-[Cys(3MeBn)-Apc-Leu-Ile-AET]] ({X3-Suc}-DW[Trp(5-Cl)]PE[dL]C[Api]LI; linker 7-C via X7) | < 10
CC[C@H](C)[C@@H]1NC(=O)[C@H](CC(C)C)NC(=O)C(C)(C)NC(=O)[C@@H](NC(=O)[C@@H](CC(C)C)NC(=O)[C@H](CCC(=O)O)NC(=O)[C@@H]2CCCN2C(=O)[C@H](Cc2c[nH]c3ccc(Cl)cc23)NC(=O)[C@H](Cc2c[nH]c3ccccc23)NC(=O)[C@H](CC(=O)O)NC(=O)CN2CCC(NC(=O)CN3CCN(CC(=O)O)CCN(CC(=O)O)CCN(CC(=O)O)CC3)CC2)CSCc2cccc(c2)CSCCNC1=O [GIP-089, DOTA-APAc-Asp-Trp-5Clw-Pro-Glu-leu-[Cys(3MeBn)-Aib-Leu-Ile-AET]] ({DOTA}-[X1]DW[Trp(5-Cl)]PE[dL]C[Aib]LI; linker 8-C via X7) | < 10
CC[C@H](C)[C@@H]1NC(=O)[C@H](CC(C)C)NC(=O)C(C)(C)NC(=O)[C@@H](NC(=O)[C@@H](CC(C)C)NC(=O)[C@H](CCC(=O)O)NC(=O)[C@@H]2CCCN2C(=O)[C@H](Cc2c[nH]c3ccc(Cl)cc23)NC(=O)[C@H](Cc2c[nH]c3ccccc23)NC(=O)[C@H](CC(=O)O)NC(=O)CCC(=O)NCCCOCCOCCOCCCNC(=O)CN2CCN(CC(=O)O)CCN(CC(=O)O)CCN(CC(=O)O)CC2)CSCc2cccc(n2)CSCCNC1=O [GIP-090, DOTA-Ttds-Asp-Trp-5Clw-Pro-Glu-leu-[Cys(2Lut)-Aib-Leu-Ile-AET]] ({X3-Suc}-DW[Trp(5-Cl)]PE[dL]C[Aib]LI; linker 7-C via X6) | < 10
CC[C@H](C)[C@@H]1NC(=O)[C@H](CC(C)C)NC(=O)C(C)(C)NC(=O)[C@@H](NC(=O)[C@@H](CC(C)C)NC(=O)[C@H](CCC(=O)O)NC(=O)[C@@H]2CCCN2C(=O)[C@H](Cc2c[nH]c3ccc(Cl)cc23)NC(=O)[C@H](Cc2c[nH]c3ccccc23)NC(=O)[C@H](CC(=O)O)NC(=O)CCC(=O)NCCCOCCOCCOCCCNC(=O)CN2CCN(CC(=O)O)CCN(CC(=O)O)CCN(CC(=O)O)CC2)CSCc2cncc(c2)CSCCNC1=O [GIP-091, DOTA-Ttds-Asp-Trp-5Clw-Pro-Glu-leu-[Cys(3Lut)-Aib-Leu-Ile-AET]] ({X3-Suc}-DW[Trp(5-Cl)]PE[dL]C[Aib]LI; linker 7-C via X15) | < 10
CC[C@H](C)[C@@H]1NC(=O)[C@H](CC(C)C)NC(=O)C(C)(C)NC(=O)[C@@H](NC(=O)[C@@H](CC(C)C)NC(=O)[C@H](CCC(=O)O)NC(=O)[C@@H]2CCCN2C(=O)[C@H](Cc2c[nH]c3ccc(Cl)cc23)NC(=O)[C@H](Cc2c[nH]c3ccccc23)NC(=O)[C@H](CC(=O)O)NC(=O)CCC(=O)NCCCOCCOCCOCCCNC(=O)CN2CCN(CC(=O)O)CCN(CC(=O)O)CCN(CC(=O)O)CC2)CNCc2cccc(c2)CSCCNC1=O [GIP-092, DOTA-Ttds-Asp-Trp-5Clw-Pro-Glu-leu-[Dap(3MeBn)-Aib-Leu-Ile-AET]] | < 10
CC[C@H](C)[C@@H]1NC(=O)[C@H](CC(C)C)NC(=O)C(C)(C)NC(=O)[C@@H](NC(=O)[C@@H](CC(C)C)NC(=O)[C@H](CCC(=O)O)NC(=O)[C@@H]2CCCN2C(=O)[C@H](Cc2c[nH]c3ccc(Cl)cc23)NC(=O)[C@H](Cc2c[nH]c3ccccc23)NC(=O)[C@H](CC(=O)O)NC(=O)CCC(=O)NCCCOCCOCCOCCCNC(=O)CN2CCN(CC(=O)O)CCN(CC(=O)O)CCN(CC(=O)O)CC2)CSCc2cccc(c2)CNCCNC1=O [GIP-093, DOTA-Ttds-Asp-Trp-5Clw-Pro-Glu-leu-[Cys(3MeBn)-Aib-Leu-Ile-en]] ({X3-Suc}-DW[Trp(5-Cl)]PE[dL]C[Aib]LI; linker 7-C via X29) | < 10
CC[C@H](C)[C@@H]1NC(=O)[C@H](CC(C)C)NC(=O)C(C)(C)NC(=O)[C@@H](NC(=O)[C@@H](CC(C)C)NC(=O)[C@H](CCC(=O)O)NC(=O)[C@@H]2C[C@@H](O)CN2C(=O)[C@H](Cc2c[nH]c3ccc(Cl)cc23)NC(=O)[C@H](Cc2c[nH]c3ccccc23)NC(=O)[C@H](CC(=O)O)NC(=O)CCC(=O)NCCCOCCOCCOCCCNC(=O)CN2CCN(CC(=O)O)CCN(CC(=O)O)CCN(CC(=O)O)CC2)CSCc2cccc(c2)CSCCNC1=O [GIP-094, DOTA-Ttds-Asp-Trp-5Clw-Hyp-Glu-leu-[Cys(3MeBn)-Aib-Leu-Ile-AET]] ({X3-Suc}-DW[Trp(5-Cl)][Hyp]E[dL]C[Aib]LI; linker 7-C via X7) | < 10

Further lines, results first:

IC50 [nM] | SMILES
< 10 | CC[C@H](C)[C@@H]1NC(=O)[C@H](CC(C)C)NC(=O)C(C)(C)NC(=O)[C@@H](NC(=O)[C@@H](CC(C)C)NC(=O)[C@H](CCC(=O)O)NC(=O)[C@@H]2CCCN2C(=O)[C@H](Cc2c[nH]c3ccc(Br)cc23)NC(=O)[C@H](Cc2c[nH]c3ccccc23)NC(=O)[C@H](CC(=O)O)NC(C)=O)CSCc2cccc(c2)CSC[C@@H](C(=O)NCCCOCCOCCOCCCNC(=O)CCC(=O)N[C@@H](CCCCNC(=O)CN2CCN(CC(=O)O)CCN(CC(=O)O)CCN(CC(=O)O)CC2)C(N)=O)NC1=O [GIP-082, Ac-Asp-Trp-5Brw-Pro-Glu-leu-[Cys(3MeBn)-Aib-Leu-Ile-Cys]-Ttds-Lys(DOTA)-NH2] (Ac-DW[Trp(5-Br)]PE[dL]C[Aib]LIC-X5; linker 7-11 via mXylylene)
< 10 | CC[C@H](C)[C@@H]1NC(=O)[C@H](CC(C)C)NC(=O)C(C)(C)NC(=O)[C@@H](NC(=O)[C@@H](CC(C)C)NC(=O)[C@H](CCC(=O)O)NC(=O)[C@@H]2CCCN2C(=O)[C@H](Cc2cccc3ccccc23)NC(=O)[C@H](Cc2c[nH]c3ccc(F)cc23)NC(=O)[C@H](CC(=O)O)NC(C)=O)CSCc2cccc(c2)CSC[C@@H](C(=O)NCCCOCCOCCOCCCNC(=O)CCC(=O)N[C@@H](CCCCNC(=O)CN2CCN(CC(=O)O)CCN(CC(=O)O)CCN(CC(=O)O)CC2)C(N)=O)NC1=O [GIP-083, Ac-Asp-5Fw-1Ni-Pro-Glu-leu-[Cys(3MeBn)-Aib-Leu-Ile-Cys]-Ttds-Lys(DOTA)-NH2] (Ac-D[Trp(5-F)][1Nal]PE[dL]C[Aib]LIC-X5; linker 7-11 via mXylylene)
< 10 | CC[C@H](C)[C@@H]1NC(=O)[C@H](CC(C)C)NC(=O)C(C)(C)NC(=O)[C@@H](NC(=O)[C@@H](CC(C)C)NC(=O)[C@H](CCC(=O)O)NC(=O)[C@@H]2CCCN2C(=O)[C@H](Cc2cccc3ccccc23)NC(=O)[C@H](Cc2c[nH]c3cc(F)ccc23)NC(=O)[C@H](CC(=O)O)NC(C)=O)CSCc2cccc(c2)CSC[C@@H](C(=O)NCCCOCCOCCOCCCNC(=O)CCC(=O)N[C@@H](CCCCNC(=O)CN2CCN(CC(=O)O)CCN(CC(=O)O)CCN(CC(=O)O)CC2)C(N)=O)NC1=O [GIP-084, Ac-Asp-6Fw-Ni-Pro-Glu-leu-[Cys(3MeBn)-Aib-Leu-Ile-Cys]-Ttds-Lys(DOTA)-NH2] (Ac-D[Trp(6-F)][1Nal]PE[dL]C[Aib]LIC-X5; linker 7-11 via mXylylene)
< 10 | CC[C@H](C)[C@@H]1NC(=O)[C@H](CC(C)C)NC(=O)C(C)(C)NC(=O)[C@@H](NC(=O)[C@H](CC(C)C)NC(=O)[C@H](CCC(=O)O)NC(=O)[C@@H]2CCCN2C(=O)[C@H](Cc2cccc3ccccc23)NC(=O)[C@H](Cc2c[nH]c3ccccc23)NC(=O)CCC(=O)O)CSCc2cccc(c2)CSC[C@@H](C(=O)NCCCOCCOCCOCCCNC(=O)CCC(=O)N[C@@H](CCCCNC(=O)CN2CCN(CC(=O)O)CCN(CC(=O)O)CCN(CC(=O)O)CC2)C(N)=O)NC1=O [GIP-085, HO-Succinyl-Trp-1Ni-Pro-Glu-Leu-[Cys(3MeBn)-Aib-Leu-Ile-Cys]-Ttds-Lys(DOTA)-NH2] (Suc-W[1Nal]PELC[Aib]LIC-X5; linker 6-10 via mXylylene)
